What all share (assay type): biochemical
For assay [1], the target named is T1, LNCaP membrane NAALAD-ase (Homo sapiens, UniProt Q04609).
T1 construct: 10 μg of protein from LNCaP cell membrane preparations was used per reaction; endogenous in cells; host or cells: LNCaP cell membranes
Kind of assay: Scintillation proximity assay (SPA) of [3H]-NAAG hydrolysis, LNCaP cell membrane preparations. As to the method:
(§1) FIG. 10: is an illustration of NAALAD-ase activity determinations using SPA beads. (A) 10 μg of protein from LNCaP cell membrane preparations was used per reaction to develop a high throughput assay NAALAD-ase assay. Hydrolysis of 40 nM 3[H]-NAAG in 1 mM ZnCl2, 50 mM Tris-HCL (pH 7.4) was measured at 25° C. for different incubation times in a 100 μl reaction volume. Reactions were terminated by the addition of 100 μl glycine buffer (pH 3.0) and naked YS-SPA beads. (C) Inhibition of NAALAD-ase I (open circles) or LNCaP membrane NAALAD-ase (closed circles) activity by increasing concentrations of quisqualic acid expressed as a % of control (activity in the absence of any inhibitor).
(§2) NAALAD-ase assays were performed at 37° C. or 25° C. for 10 min in the presence of 50 mM Tris-HCl, pH 7.4, containing 1 mM ZnCl2. Each assay was performed in a 100 μl reaction volume containing 40 nM 3[H]-NAAG, 50 mM Tris-HCl (pH 7.4), 1 mM Zn^2+C2 and either 10 μg of recombinant NAALAD-ase I or LNCaP cell membrane preparations. Reactions were terminated by addition of 100 μl glycine buffer (pH 3.0) and 1 mg naked YS-SPA beads. After allowing the beds to settle for 30 min, the assay mixture was counted in a microtiterplate scintillation counter. […]
On the technique in general: SPA uses beads or plates that emit light when radiolabelled molecules are held near them.

Assay [2] addresses T2, NAALAD-ase I (Homo sapiens, UniProt Q04609, Y75H). In words: Scintillation proximity assay (SPA) of [3H]-NAAG hydrolysis, recombinant NAALAD-ase I membrane preparations. More on the design: expressed in transfected cells. As to the method:
as §1, §2

The target in a further assay is T3, NAALAD-ase L (Homo sapiens, UniProt Q9UQQ1).
T3 construct: To construct a full length NAALAD-ase L clone, two new primer sets were designed; expressed in transfected cells; host or cells: COS cells, transient, pcDNA-3
T3 sequence (Q9UQQ1 1-740 S100X/R686S/T687H/S689L/V690R/V691S/T692H/F693I): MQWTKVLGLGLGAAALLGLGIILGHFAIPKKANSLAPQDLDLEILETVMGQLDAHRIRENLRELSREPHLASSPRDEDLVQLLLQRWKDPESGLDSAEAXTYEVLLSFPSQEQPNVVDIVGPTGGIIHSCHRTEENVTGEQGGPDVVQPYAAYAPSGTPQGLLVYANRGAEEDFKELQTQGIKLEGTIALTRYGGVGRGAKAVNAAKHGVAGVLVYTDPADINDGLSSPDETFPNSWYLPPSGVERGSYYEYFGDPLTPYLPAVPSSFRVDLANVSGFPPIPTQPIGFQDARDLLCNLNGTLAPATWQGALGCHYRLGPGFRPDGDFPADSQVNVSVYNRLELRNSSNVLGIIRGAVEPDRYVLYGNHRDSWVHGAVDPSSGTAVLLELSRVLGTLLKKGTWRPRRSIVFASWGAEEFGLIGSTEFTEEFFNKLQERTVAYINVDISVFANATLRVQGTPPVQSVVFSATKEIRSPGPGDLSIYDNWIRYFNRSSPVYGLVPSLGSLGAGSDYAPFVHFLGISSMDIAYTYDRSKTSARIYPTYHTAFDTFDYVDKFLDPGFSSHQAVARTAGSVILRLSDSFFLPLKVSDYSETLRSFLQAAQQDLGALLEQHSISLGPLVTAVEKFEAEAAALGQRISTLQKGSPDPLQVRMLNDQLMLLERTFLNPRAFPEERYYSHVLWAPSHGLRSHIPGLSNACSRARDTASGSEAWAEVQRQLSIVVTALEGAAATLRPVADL
In words: [3H]-NAAG hydrolysis assay, COS cells transfected with NAALAD-ase L. The conditions noted are these: recombinant preparation from COS cells. The procedure:
(§3) FIG. 9: is an illustration of time course of NAALAD-ase activity. Activity of membrane preparations from COS cells transiently transfected with either NAALAD-ase I (A) or […]. Hydrolysis of 500 nM 3[H]-NAAG in 1 mM ZnCl2, 50 mM Tris.HCL (pH 7.4) was assayed for 0, 15, 30 and 60 min at 37° C. in the presence (open circles) or absence (closed circles) of 30 μM quisqualate. Reactions were terminated with 250 mM ice cold sodium phosphate and released 3[H]-glutamate measured. (C) Inhibition of NAALAD-ase I (open circles) and NAALAD-ase II (closed circles) activity by increasing concentrations of quisqualic acid expressed as % of control (activity in the absence of any inhibitor).
COS cells were maintained in complete medium (DMEM supplemented with 10% foetal calf serum, 1× non-essential amino acids and a 1× strptamycin/penicillin/glutamine mix). […] The cell titre was determined in a Coulter counter and cells were seeded in 6 well plates at a density of 15000 cells/cm^2 and allowed to reach approximately 80% confluence (˜2 days growth). […]
(§4) NAALAD-ase activity was quantified by determination of the extent of hydrolysis of N-acetyl-L-aspartyl-L-(3,4-[^3H])-glutamate as previously described (Blakeley et al., 1988). […] Assay eluates were diluated with scintillation cocktail (16 ml Ultima Gold XR) and counted in a scintillation counter (Packard). […]

In the next assay the target is T4, NAALAD-ase II (Homo sapiens, UniProt Q9Y3Q0).
T4 construct: expressed in transfected cells; host or cells: COS cells, transient, pcDNA-3
T4 sequence (Q9Y3Q0 whole entry): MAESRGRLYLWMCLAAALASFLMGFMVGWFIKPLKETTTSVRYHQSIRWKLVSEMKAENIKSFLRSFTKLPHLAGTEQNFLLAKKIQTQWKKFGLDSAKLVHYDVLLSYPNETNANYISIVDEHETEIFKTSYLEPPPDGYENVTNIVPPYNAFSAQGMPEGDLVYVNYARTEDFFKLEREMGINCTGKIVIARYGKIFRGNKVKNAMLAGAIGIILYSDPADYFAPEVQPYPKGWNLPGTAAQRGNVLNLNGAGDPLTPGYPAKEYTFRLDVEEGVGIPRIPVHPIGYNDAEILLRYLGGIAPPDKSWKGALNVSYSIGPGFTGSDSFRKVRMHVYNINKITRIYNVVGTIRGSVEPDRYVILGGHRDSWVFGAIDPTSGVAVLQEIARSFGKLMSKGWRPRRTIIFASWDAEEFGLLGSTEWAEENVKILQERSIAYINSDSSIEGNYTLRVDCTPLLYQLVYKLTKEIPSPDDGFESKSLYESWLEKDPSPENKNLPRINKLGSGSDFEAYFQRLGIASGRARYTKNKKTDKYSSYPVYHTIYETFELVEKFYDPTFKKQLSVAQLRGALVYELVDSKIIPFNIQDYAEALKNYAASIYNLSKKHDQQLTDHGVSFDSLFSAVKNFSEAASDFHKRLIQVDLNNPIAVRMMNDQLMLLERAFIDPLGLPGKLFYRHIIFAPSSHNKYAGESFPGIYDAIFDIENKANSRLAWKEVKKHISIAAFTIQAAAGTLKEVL
In words: [3H]-NAAG hydrolysis assay, membranes of COS cells transiently transfected with NAALAD-ase II. The procedure: as §3
(§5) COS cells were maintained in complete medium (DMEM supplemented with 10% foetal calf serum, 1× non-essential amino acids and a 1× strptamycin/penicillin/glutamine mix). Prior to transfection cells were washed twice with PBS, Ca^+2/Mg^2+ free pre-warmed to 37° C. and dissociated from culture plates by addition of a trypsin/EDTA solution for 1–2 minutes. Cells were collected after a 10 min spin at 1600 rpm and re-suspended in 1–2 ml of equilibrated (5% CO2/95% air) pre-warmed medium. The cell titre was determined in a Coulter counter and cells were seeded in 6 well plates at a density of 15000 cells/cm^2 and allowed to reach approximately 80% confluence (˜2 days growth). For each transfection 6 μl FuGENE6 (Boehringer Mannheim, Germany) was added to 96 μl serum free medium and incubated for 5 minutes at 20° C. This preparation was added to a second tube containing 1 μg of NAALAD-ase/pcDNA3 DNA, mixed gently and allowed to stand for 15 minutes at room temperature. The DNA/FuGENE6/serum-free medium mix was pipetted into a well containing 2 ml fresh complete medium. […]
as §4

In assay [3] the target is T2, NAALAD-ase I. Kind of assay: [3H]-NAAG hydrolysis assay, membranes of COS cells transiently transfected with NAALAD-ase I. More on the design: expressed in transfected cells; host or cells: COS cells, transient, pcDNA-3 (CMV promoter). As to the method:
as §3, §5, §4

Molecules are shown by their SMILES. Where only a bound is given, the exact number is not on record here.

As usually defined, the IC50 is the concentration that gives 50% inhibition. In general, inhibition refers to how much of the control response was suppressed. A lower inhibition goes with a weak effect.

T2 sequence (Q04609 whole entry Y75H): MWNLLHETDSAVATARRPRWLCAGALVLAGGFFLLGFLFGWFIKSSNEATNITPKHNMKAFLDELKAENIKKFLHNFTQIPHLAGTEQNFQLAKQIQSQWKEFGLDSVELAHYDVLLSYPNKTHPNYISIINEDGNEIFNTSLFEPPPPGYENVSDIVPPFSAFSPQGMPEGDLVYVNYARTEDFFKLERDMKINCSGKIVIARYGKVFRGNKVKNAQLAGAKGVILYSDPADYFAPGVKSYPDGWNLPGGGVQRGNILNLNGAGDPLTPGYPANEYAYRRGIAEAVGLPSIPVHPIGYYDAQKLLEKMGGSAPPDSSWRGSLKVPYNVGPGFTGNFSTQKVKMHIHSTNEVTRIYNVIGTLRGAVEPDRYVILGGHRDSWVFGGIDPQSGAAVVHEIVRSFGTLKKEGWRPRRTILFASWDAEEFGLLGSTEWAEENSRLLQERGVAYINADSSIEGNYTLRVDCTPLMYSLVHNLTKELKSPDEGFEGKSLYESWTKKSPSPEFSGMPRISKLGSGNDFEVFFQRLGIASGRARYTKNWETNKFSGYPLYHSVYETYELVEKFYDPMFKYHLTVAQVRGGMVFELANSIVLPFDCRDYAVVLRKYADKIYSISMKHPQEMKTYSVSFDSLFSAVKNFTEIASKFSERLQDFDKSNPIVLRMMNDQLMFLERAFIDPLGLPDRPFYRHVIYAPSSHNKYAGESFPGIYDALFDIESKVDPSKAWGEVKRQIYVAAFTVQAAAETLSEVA
T1 sequence (Q04609 whole entry): as the sequence (Q04609 whole entry Y75H) above, with H75Y counted along it

For the compound `N[C@@H](Cn1oc(=O)[nH]c1=O)C(=O)O` [quisqualic acid], the concentration for half-maximal inhibition (IC50) in assay [1] was 0.91 µM; at NAALAD-ase I [2], 1 µM; on NAALAD-ase II (IC50, inhibition of NAALAD-ase II activity, 500 nM [3H]-NAAG, 37° C., 60 min, anion exchange column readout (FIG. 9C)) it was 17 µM; on NAALAD-ase II (IC50 for NAALAD-ase II (discussion, rounded), recombinant preparation from COS cells, NAAG hydrolysis), roughly 10 µM; against NAALAD-ase I [3] (IC50, inhibition of NAALAD-ase I activity, 500 nM [3H]-NAAG, 37° C., 30 min, anion exchange column readout (FIG. 9C)), 12 µM; at NAALAD-ase I [3] (IC50 for NAALAD-ase I (discussion, rounded), recombinant preparation from COS cells, NAAG hydrolysis), roughly 10 µM. Also, the “inhibition of NAALAD-ase L activity against NAAG” value at NAALAD-ase L is on record as “inhibited”. The inhibition at 30 µM on NAALAD-ase II (30 μM, after 60 min (FIG. 9B)) is greater than 50%; on NAALAD-ase I [3] (30 μM, after 60 min (FIG. 9A)), greater than 50%.

(Values after patent publication US7217555B1, “Cloning and characterisation of novel mammalian peptidase” (Janssen Pharmaceutica N.V., priority 1998, dated 2007).)
